Laboratory results as given in patent US11530222B2, “Substituted pyrrolopyrimidine and pyrazolopyrimidine as Bruton's tyrosine kinase (BTK) degraders” (ACCUTAR BIOTECHNOLOGY INC., priority 2021, dated 2022).

The molecules below were run against T1, BTK (Homo sapiens, UniProt Q06187) (assay: BTK degradative activity in a RAMOS cell line (Western blot)). Conditions: 6 hours after administration, read-out: RAMOS BTK Degradation DC50.
T1 construct: BTK Degradative Activity of Exemplary Compounds of the Present Disclosure in a RAMOS Cell Line; host or cells: RAMOS
T1 sequence (Q06187 whole entry): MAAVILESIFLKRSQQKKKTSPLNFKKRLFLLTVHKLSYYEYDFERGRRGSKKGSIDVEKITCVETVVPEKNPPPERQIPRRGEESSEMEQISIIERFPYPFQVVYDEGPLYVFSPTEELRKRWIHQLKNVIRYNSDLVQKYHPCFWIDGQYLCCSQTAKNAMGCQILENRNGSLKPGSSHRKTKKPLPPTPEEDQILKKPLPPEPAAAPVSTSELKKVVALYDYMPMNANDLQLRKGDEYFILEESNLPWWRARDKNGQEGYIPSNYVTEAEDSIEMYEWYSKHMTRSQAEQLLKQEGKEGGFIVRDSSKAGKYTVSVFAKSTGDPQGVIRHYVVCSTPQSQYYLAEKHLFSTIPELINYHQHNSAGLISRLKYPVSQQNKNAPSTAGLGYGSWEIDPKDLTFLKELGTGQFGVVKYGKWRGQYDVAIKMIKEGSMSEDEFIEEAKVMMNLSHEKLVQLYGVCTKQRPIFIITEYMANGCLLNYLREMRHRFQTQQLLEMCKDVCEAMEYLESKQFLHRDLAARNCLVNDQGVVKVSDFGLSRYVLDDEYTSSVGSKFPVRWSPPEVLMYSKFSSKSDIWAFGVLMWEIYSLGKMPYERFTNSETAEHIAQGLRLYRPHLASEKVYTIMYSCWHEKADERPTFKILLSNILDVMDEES
Type: cell-based
Experimental: RAMOS (ATCC) cells were plated in 24-well plates at 8×10^5 cells/well in the RPMI growth medium containing 10% heat-inactivated FBS and 1× Penicillin Streptomycin, and then incubated at 37° C. overnight. The following day, the test compound was administered to the cells by using 1000× compound stock solution prepared in DMSO at various concentrations. After administration of the compound, the cells were then incubated at 37° C. for 6 hours.
Upon completion, the cells were collected by centrifugation and lysed in Laemmli sample buffer (1×; VWR International). Proteins in cell lysate were separated by SDS-PAGE and transferred to Odyssey nitrocellulose membranes (Licor) with Iblot® dry blotting transfer system (ThermoFisher). Nonspecific binding was blocked by incubating membranes with Intercept Blocking Buffer (Licor) for 1 hour at room temperature with gentle shaking. The membranes were then incubated overnight at 4° C. with primary antibodies anti-BTK (Cell signaling, cat. #8547) and anti-GAPDH (Cell signaling, cat. #5179) diluted in Intercept Blocking Buffer containing 0.1% Tween 20. After washing 3 times with TBS-T, the membranes were incubated with IRDye® 800CW goat anti-mouse IgG (1:20,000, Licor) or IRDye® 800CW goat anti-rabbit IgG (1:20,000, Licor) for 1 hour. After TBS-T washes, membranes were rinsed in TBS and scanned on Odyssey® CLx Imaging System (Licor). The bands were quantified using Image Studio™ Software (Licor).
Table 3 summarizes the BTK degradative activity of exemplary compounds of the present disclosure in a RAMOS cell line 6 hours after administration. The DC50 values (i.e., the concentration of test compound at which 50% of the target protein is degraded) were calculated. A designation of “A” corresponds to a DC50 value less than 10 nM. A designation of “B” corresponds to a DC50 value greater than or equal to 10 nM and less than 100 nM. A designation of “C” corresponds to a DC50 value greater than or equal to 100 nM.

Row | Structure (SMILES) | DC50 [nM]
1 | O=C1CCC(N2C(=O)c3ccc(OCCCCCCCN4CCN(c5ccc(C(=O)N6CCC[C@@H](Nc7ncnc8[nH]cc(C(=O)c9ccc(Oc%10ccccc%10)cc9Cl)c78)C6)cn5)CC4)cc3C2=O)C(=O)N1 (stereo partly drawn) [Compound 1, 5-((7-(4-(5-((R)-3-((5-(2-chloro-4-phenoxybenzoyl)-7H-pyrrolo [2,3-d]pyrimidin-4-yl)amino)piperidine-1-carbonyl)pyridin-2-yl)piperazin-1-yl)heptyl)oxy)-2-(2,6-dioxopiperidin-3-yl)isoindoline-1,3-dione] | ≥ 100
2 | O=C1CC[C@H](N2Cc3cc(N4CCN(CCCCCC(=O)N5CCC(Nc6ncnc7[nH]cc(C(=O)c8ccc(Oc9ccccc9)cc8Cl)c67)CC5)CC4)ccc3C2=O)C(=O)N1 [Compound 13, (S)-3-(5-(4-(6-(4-((5-(2-chloro-4-phenoxybenzoyl)-7H-pyrrolo[2,3-d]pyrimidin-4-yl)amino)piperidin-1-yl)-6-oxohexyl)piperazin-1-yl)-1-oxoisoindolin-2-yl)piperidine-2,6-dione] | < 10
3 | O=C1CC[C@H](N2Cc3cc(N4CCN(CCCC(=O)N5CCC[C@@H](Nc6ncnc7[nH]cc(C(=O)c8ccc(Oc9ccccc9)cc8Cl)c67)C5)CC4)ccc3C2=O)C(=O)N1 [Compound 20, (S)-3-(5-(4-(4-((R)-3-((5-(2-chloro-4-phenoxybenzoyl)-7H-pyrrolo[2,3-d]pyrimidin-4-yl)amino)piperidin-1-yl)-4-oxobutyl)piperazin-1-yl)-1-oxoisoindolin-2-yl)piperidine-2,6-dione] | 10 to 100
4 | O=C1CCC(N2C(=O)c3ccc(N4CCN(CC5CCN(c6ccc(C(=O)N7CCC[C@@H](Nc8ncnc9[nH]cc(C(=O)c%10ccc(Oc%11ccccc%11)cc%10Cl)c89)C7)cn6)CC5)CC4)cc3C2=O)C(=O)N1 (stereo partly drawn) [Compound 10, 5-(4-((1-(5-((R)-3-((5-(2-chloro-4-phenoxybenzoyl)-7H-pyrrolo[2,3-d]pyrimidin-4-yl)amino)piperidine-1-carbonyl)pyridin-2-yl)piperidin-4-yl)methyl)piperazin-1-yl)-2-(2,6-dioxopiperidin-3-yl)isoindoline-1,3-dione] | ≥ 100
5 | O=C1CCC(N2C(=O)c3ccc(OCCCN4CCN(c5ccc(C(=O)N6CCC[C@@H](Nc7ncnc8[nH]cc(C(=O)c9ccc(Oc%10ccccc%10)cc9Cl)c78)C6)cn5)CC4)cc3C2=O)C(=O)N1 (stereo partly drawn) [Compound 4, 5-(3-(4-(5-((R)-3-((5-(2-chloro-4-phenoxybenzoyl)-7H-pyrrolo [2,3-d]pyrimidin-4-yl)amino)piperidine-1-carbonyl)pyridin-2-yl)piperazin-1-yl)propoxy)-2-(2,6-dioxopiperidin-3-yl)isoindoline-1,3-dione] | ≥ 100
6 | O=C1CCC(N2C(=O)c3ccc(N4CCN(CCCCCCC(=O)N5CCC[C@@H](Nc6ncnc7[nH]cc(C(=O)c8ccc(Oc9ccccc9)cc8Cl)c67)C5)CC4)cc3C2=O)C(=O)N1 (stereo partly drawn) [Compound 8] | 10 to 100
7 | O=C1CC[C@H](N2Cc3cc(N4CCN(CCCCCCC(=O)N5CCC(Nc6ncnc7[nH]cc(C(=O)c8ccc(Oc9ccccc9)cc8Cl)c67)CC5)CC4)ccc3C2=O)C(=O)N1 [Compound 21, (S)-3-(5-(4-(7-(4-((5-(2-chloro-4-phenoxybenzoyl)-7H-pyrrolo[2,3-d]pyrimidin-4-yl)amino)piperidin-1-yl)-7-oxoheptyl)piperazin-1-yl)-1-oxoisoindolin-2-yl)piperidine-2,6-dione] | 10 to 100

Results, then the molecule that gave them:

Row | DC50 [nM] | Structure (SMILES)
8 | 10 to 100 | COc1ccc(C(=O)N2CCCN(CC3CCN(c4ccc(Nc5ncnc6[nH]cc(C(=O)c7ccc(Oc8ccccc8)cc7Cl)c56)cc4F)CC3)CC2)cc1N1CCC(=O)NC1=O [Compound 75, 1-(5-(4-((1-(4-((5-(2-chloro-4-phenoxybenzoyl)-7H-pyrrolo[2,3-d]pyrimidin-4-yl)amino)-2-fluorophenyl)piperidin-4-yl)methyl)-1,4-diazepane-1-carbonyl)-2-methoxyphenyl)dihydropyrimidine-2,4(1H,3H)-dione]
9 | 10 to 100 | O=C1CCC(N2C(=O)c3ccc(N4CCN(CCCCC(=O)N5CCC(Nc6ncnc7[nH]cc(C(=O)c8ccc(Oc9ccccc9)cc8Cl)c67)CC5)CC4)cc3C2=O)C(=O)N1 (stereo not drawn) [Compound 31, 5-(4-(5-(4-((5-(2-chloro-4-phenoxybenzoyl)-7H-pyrrolo[2,3-d]pyrimidin-4-yl)amino)piperidin-1-yl)-5-oxopentyl)piperazin-1-yl)-2-(2,6-dioxopiperidin-3-yl)isoindoline-1,3-dione]
10 | ≥ 100 | O=C1CCC(N2C(=O)c3cccc(C#CCCCCCCC(=O)N4CCC(Nc5ncnc6[nH]cc(C(=O)c7ccc(Oc8ccccc8)cc7Cl)c56)CC4)c3C2=O)C(=O)N1 (stereo not drawn) [Compound 35, 4-(9-(4-((5-(2-chloro-4-phenoxybenzoyl)-7H-pyrrolo[2,3-d]pyrimidin-4-yl)amino)piperidin-1-yl)-9-oxonon-1-yn-1-yl)-2-(2,6-dioxopiperidin-3-yl)isoindoline-1,3-dione]
11 | 10 to 100 | O=C1CC[C@H](N2Cc3cc(N4CCN(CCCC(=O)N5CCC(Nc6ncnc7[nH]cc(C(=O)c8ccc(Oc9ccccc9)cc8Cl)c67)CC5)CC4)ccc3C2=O)C(=O)N1 [Compound 24, (S)-3-(5-(4-(4-(4-((5-(2-chloro-4-phenoxybenzoyl)-7H-pyrrolo[2,3-d]pyrimidin-4-yl)amino)piperidin-1-yl)-4-oxobutyl)piperazin-1-yl)-1-oxoisoindolin-2-yl)piperidine-2,6-dione]
12 | < 10 | O=C1CCC(N2C(=O)c3ccc(N4CCN(CCCCCN5CCC(Nc6ncnc7[nH]cc(C(=O)c8ccc(Oc9ccccc9)cc8Cl)c67)CC5)CC4)cc3C2=O)C(=O)N1 (stereo not drawn) [Compound 34, 5-(4-(5-(4-((5-(2-chloro-4-phenoxybenzoyl)-7H-pyrrolo[2,3-d]pyrimidin-4-yl)amino)piperidin-1-yl)pentyl)piperazin-1-yl)-2-(2,6-dioxopiperidin-3-yl)isoindoline-1,3-dione]
13 | ≥ 100 | O=C1CCC(N2Cc3c(C#CCCCCCC(=O)N4CCC(Nc5ncnc6[nH]cc(C(=O)c7ccc(Oc8ccccc8)cc7Cl)c56)CC4)cccc3C2=O)C(=O)N1 (stereo not drawn) [Compound 40, 3-(4-(8-(4-((5-(2-chloro-4-phenoxybenzoyl)-7H-pyrrolo[2,3-d]pyrimidin-4-yl)amino)piperidin-1-yl)-8-oxooct-1-yn-1-yl)-1-oxoisoindolin-2-yl)piperidine-2,6-dione]
14 | ≥ 100 | O=C1CCC(N2C(=O)c3ccc(N4CCN(CCC5CCN(c6ccc(Nc7ncnc8[nH]cc(C(=O)c9ccc(Oc%10ccccc%10)cc9Cl)c78)cc6F)CC5)CC4)cc3C2=O)C(=O)N1 (stereo not drawn) [Compound 44, 5-(4-(2-(1-(4-((5-(2-chloro-4-phenoxybenzoyl)-7H-pyrrolo[2,3-d]pyrimidin-4-yl)amino)-2-fluorophenyl)piperidin-4-yl)ethyl)piperazin-1-yl)-2-(2,6-dioxopiperidin-3-yl)isoindoline-1,3-dione]
15 | ≥ 100 | O=C1CCC(N2Cc3c(C#CCCCCC(=O)N4CCC(Nc5ncnc6[nH]cc(C(=O)c7ccc(Oc8ccccc8)cc7Cl)c56)CC4)cccc3C2=O)C(=O)N1 (stereo not drawn) [Compound 41, 3-(4-(7-(4-((5-(2-chloro-4-phenoxybenzoyl)-7H-pyrrolo[2,3-d]pyrimidin-4-yl)amino)piperidin-1-yl)-7-oxohept-1-yn-1-yl)-1-oxoisoindolin-2-yl)piperidine-2,6-dione]
16 | 10 to 100 | O=C1CC[C@H](N2Cc3cc(N4CCN(CC5CCN(C(=O)N6CCC[C@@H](Nc7ncnc8[nH]cc(C(=O)c9ccc(Oc%10ccccc%10)cc9Cl)c78)C6)CC5)CC4)ccc3C2=O)C(=O)N1 [Compound 32, (S)-3-(5-(4-((1-((R)-3-((5-(2-chloro-4-phenoxybenzoyl)-7H-pyrrolo[2,3-d]pyrimidin-4-yl)amino)piperidine-1-carbonyl)piperidin-4-yl)methyl)piperazin-1-yl)-1-oxoisoindolin-2-yl)piperidine-2,6-dione]
17 | ≥ 100 | O=C1CCC(N2C(=O)c3ccc(N4CCN(CCCCCN5CCC[C@@H](Nc6ncnc7[nH]cc(C(=O)c8ccc(Oc9ccccc9)cc8Cl)c67)C5)CC4)cc3C2=O)C(=O)N1 (stereo partly drawn) [Compound 30, 5-(4-(5-((R)-3-((5-(2-chloro-4-phenoxybenzoyl)-7H-pyrrolo[2,3-d]pyrimidin-4-yl)amino)piperidin-1-yl)pentyl)piperazin-1-yl)-2-(2,6-dioxopiperidin-3-yl)isoindoline-1,3-dione]
18 | ≥ 100 | O=C1CC[C@H](N2Cc3cc(N4CCN(CC5CCN(c6ccc(Nc7ncnc8[nH]cc(C(=O)c9ccc(Oc%10ccccc%10)cc9Cl)c78)cc6F)CC5)CC4)ccc3C2=O)C(=O)N1 [Compound 46, (S)-3-(5-(4-((1-(4-((5-(2-chloro-4-phenoxybenzoyl)-7H-pyrrolo[2,3-d]pyrimidin-4-yl)amino)-2-fluorophenyl)piperidin-4-yl)methyl)piperazin-1-yl)-1-oxoisoindolin-2-yl)piperidine-2,6-dione]
